In PMC10946806, “Development of Bifunctional, Raman Active Diyne‐Girder Stapled α‐Helical Peptides” (Chemistry (Weinheim an Der Bergstrasse, Germany), 2023):
Positions of bridges follow the written chain, without caps; N, C: chain ends. Non-standard residues stand in square brackets, D forms with d. Residues, ends and D or L forms follow the SMILES beside them. *: point of attachment. FITC = O=C1OC2(c3ccc(O)cc3Oc3cc(O)ccc32)c2ccc(NC(=S)*)cc21; R8 = C=CCCCCCC[C@@](C)(N)C(=O)O; S5 = C=CCCC[C@](C)(N)C(=O)O; Nle = CCCC[C@H](N)C(=O)O; Ahx = NCCCCCC(=O)O

Legend:
[1] = Circular dichroism (CD) spectroscopy, % helicity; type: physicochemical
Experimental: Circular dichroism (CD): CD spectra were obtained using a JASCO J-810 CD spectrometer. […] Percentage helicities can be calculated for α-helical peptides. […] […] Equation S1. MRE calculation. […] To 100 μL of peptide solution was added 100 11

Compound	% peptide remaining after 4 h with chymotrypsin [%]	also measured
CCCC[C@@H]1NC(=O)[C@H](CCCNC(=N)N)NC(=O)[C@H](C)NC(=O)[C@H](Cc2ccc(O)cc2)NC(=O)[C@@](C)(NC(=O)[C@H](CCCCN)NC(=O)[C@H](C)NC(=O)CCCCCNC(=S)Nc2ccc3c(c2)C(=O)OC32c3ccc(O)cc3Oc3cc(O)ccc32)CCCCCC#CC#CCCCCC[C@@](C)(C(=O)N[C@@H](CC(C)C)C(=O)N[C@@H](CCCCN)C(=O)N[C@@H](CCC(=O)O)C(=O)N[C@H](C(=O)N[C@@H](C)C(=O)N[C@@H](CCCCN)C(N)=O)[C@@H](C)CC)NC(=O)[C@H](CCCNC(=N)N)NC(=O)CNC1=O	> 92	
FTU-Ahx-AKS8YAR(Nle)GRR8LKEIAK-NH2 (sidechain bridge or staple) [compound 36, diyne-girder stapled T-STAR peptide, C16 bridge, SR]		percentage helicity (in words) ([1]; peptide 50 μM in PBS pH 7.4, 222 nm): high
CCCC[C@@H]1NC(=O)[C@H](CCCNC(=N)N)NC(=O)[C@H](C)NC(=O)[C@H](Cc2ccc(O)cc2)NC(=O)[C@](C)(NC(=O)[C@H](CCCCN)NC(=O)[C@H](C)NC(=O)CCCCCNC(=S)Nc2ccc3c(c2)C(=O)OC32c3ccc(O)cc3Oc3cc(O)ccc32)CCCCCC/C=C/CCC[C@@](C)(C(=O)N[C@@H](CC(C)C)C(=O)N[C@@H](CCCCN)C(=O)N[C@@H](CCC(=O)O)C(=O)N[C@H](C(=O)N[C@@H](C)C(=O)N[C@@H](CCCCN)C(N)=O)[C@@H](C)CC)NC(=O)[C@H](CCCNC(=N)N)NC(=O)CNC1=O ({FITC-Ahx}-AK[R8]YAR[Nle]GR[S5]LKEIAK-NH2; staple (E) 3-10)	> 92	
FTU-Ahx-AKR8YAR(Nle)GRR8LKEIAK-NH2 (sidechain bridge or staple) [compound 34, diyne-girder stapled T-STAR peptide, C16 bridge, RR]		percentage helicity at 222 nm from mean residue ellipticity ([1]; peptide 50 μM in PBS pH 7.4, room temperature, MRE at 222 nm converted by Equation S2): 33%
CCCC[C@@H]1NC(=O)[C@H](CCCNC(=N)N)NC(=O)[C@H](C)NC(=O)[C@H](Cc2ccc(O)cc2)NC(=O)[C@@H](NC(=O)[C@H](CCCCN)NC(=O)[C@H](C)NC(=O)CCCCCNC(=S)Nc2ccc3c(c2)C(=O)OC32c3ccc(O)cc3Oc3cc(O)ccc32)CCCCCC#CC#CCCCCC[C@@H](C(=O)N[C@@H](CC(C)C)C(=O)N[C@@H](CCCCN)C(=O)N[C@@H](CCC(=O)O)C(=O)N[C@H](C(=O)N[C@@H](C)C(=O)N[C@@H](CCCCN)C(N)=O)[C@@H](C)CC)NC(=O)[C@H](CCCNC(=N)N)NC(=O)CNC1=O	> 92	
CCCC[C@@H]1NC(=O)[C@H](CCCNC(=N)N)NC(=O)[C@H](C)NC(=O)[C@H](Cc2ccc(O)cc2)NC(=O)[C@](C)(NC(=O)[C@H](CCCCN)NC(=O)[C@H](C)NC(=O)CCCCCNC(=S)Nc2ccc3c(c2)C(=O)OC32c3ccc(O)cc3Oc3cc(O)ccc32)CCCCCC/C=C\CCC[C@@](C)(C(=O)N[C@@H](CC(C)C)C(=O)N[C@@H](CCCCN)C(=O)N[C@@H](CCC(=O)O)C(=O)N[C@H](C(=O)N[C@@H](C)C(=O)N[C@@H](CCCCN)C(N)=O)[C@@H](C)CC)NC(=O)[C@H](CCCNC(=N)N)NC(=O)CNC1=O ({FITC-Ahx}-AK[R8]YAR[Nle]GR[S5]LKEIAK-NH2; staple (Z) 3-10)	> 92	
